Values joined by “and” are separate entries in the source; they are usually repeats but may differ in a detail not shown here. Equal values may be shown once. Toxic doses and inconclusive results are not listed.
System: BDF1 mice, L1210 6-MP/6-TG resistant leukemia ip, survival T/C
Assay: NCI In Vivo Anticancer Drug Screen. Data for tumor model L1210 Leukemia resistant to 6-MP and 6-Thioguanine; NSC 755, NSC 752 (intraperitoneal) in B6D2F1 (BDF1) mice
Settings: endpoint: mean survival time, higher = longer survival
Description: The antitumor activity of compounds was measured in mice bearing transplantable tumors. Survival or tumor size were measured and the results are expressed as the measurement made in the treated group (T) divided by the measurement made in the vehicle treated control group (C). The tumor model used in this assay is L1210 Leukemia resistant to 6-MP and 6-Thioguanine; NSC 755, NSC 752 (intraperitoneal) in B6D2F1 (BDF1) mice

[1] = dose: 62.5 mg/kg/injection, schedule: Q01DX Z (ip), vehicle: saline
[2] = dose: 125.0 mg/kg/injection, schedule: Q01DX Z (ip), vehicle: saline
[3] = dose: 15.0 mg/kg/injection, schedule: Q01DX Z (ip), vehicle: saline
[4] = dose: 500.0 mg/kg/injection, schedule: Q01DX Z (ip), vehicle: saline
[5] = dose: 25.0 mg/kg/injection, schedule: Q01DX Z (ip), vehicle: carboxymethylcellulose (CMC)
[6] = dose: 37.5 mg/kg/injection, schedule: Q01DX Z (ip), vehicle: carboxymethylcellulose (CMC)
[7] = dose: 12.0 mg/kg/injection, schedule: Q01DX Z (ip), vehicle: saline
[8] = dose: 4.0 mg/kg/injection, schedule: Q01DX Z (ip), vehicle: carboxymethylcellulose (CMC)
[9] = dose: 6.0 mg/kg/injection, schedule: Q01DX Z (ip), vehicle: carboxymethylcellulose (CMC)
[10] = dose: 8.0 mg/kg/injection, schedule: Q01DX Z (ip), vehicle: carboxymethylcellulose (CMC)

For `CCCCNc1ncnc2c1cnn2C`, the T/C (dose: 2.5 mg/kg/injection, schedule: Q01DX Z (ip), vehicle: saline) was 105 % of control, the T/C (dose: 5.0 mg/kg/injection, schedule: Q01DX Z (ip), vehicle: saline) was 105 % of control and the T/C (dose: 10.0 mg/kg/injection, schedule: Q01DX Z (ip), vehicle: saline) was 105 % of control. For the same compound, the T/C (dose: 20.0 mg/kg/injection, schedule: Q01DX Z (ip), vehicle: saline) was 104 % of control, the T/C (dose: 31.0 mg/kg/injection, schedule: Q01DX Z (ip), vehicle: saline) was 119 % of control and the T/C [1] was 104 % of control. The T/C [2] was 95 % of control.
In the case of `CC(=O)N(C)C`, the T/C (dose: 7.5 mg/kg/injection, schedule: Q01DX Z (ip), vehicle: saline) was 115 % of control, the T/C [3] was 110 % of control and the T/C (dose: 30.0 mg/kg/injection, schedule: Q01DX Z (ip), vehicle: saline) was 107 % of control. The T/C [1] was 110 % of control, the T/C [2] was 114 % of control and the T/C (dose: 250.0 mg/kg/injection, schedule: Q01DX Z (ip), vehicle: saline) was 109 % of control. For the same compound, the T/C [4] was 120 % of control.
In the case of `Clc1ccccc1CSc1ncnc2nc[nH]c12`, the T/C (dose: 62.5 mg/kg/injection, schedule: Q01DX Z (ip), vehicle: other) was 96 % of control, the T/C (dose: 125.0 mg/kg/injection, schedule: Q01DX Z (ip), vehicle: other) was 92 % of control and the T/C (dose: 250.0 mg/kg/injection, schedule: Q01DX Z (ip), vehicle: other) was 86 % of control.
In the case of `Cc1cc(N(CCCl)CCCl)ccc1N=Nc1ccccc1C(=O)O`, the T/C (dose: 4.5 mg/kg/injection, schedule: Q01DX Z (ip), vehicle: carboxymethylcellulose (CMC)) was 119 % of control, the T/C (dose: 9.0 mg/kg/injection, schedule: Q01DX Z (ip), vehicle: carboxymethylcellulose (CMC)) was 124 % of control and the T/C (dose: 18.75 mg/kg/injection, schedule: Q01DX Z (ip), vehicle: carboxymethylcellulose (CMC)) was 114 % of control. The T/C [5] was 123 % of control and the T/C [6] was 90 % of control.
In the case of `CS(=O)(=O)OCCCl`, the T/C (dose: 75.0 mg/kg/injection, schedule: Q01DX Z (ip), vehicle: saline) was 115 % of control, the T/C (dose: 100.0 mg/kg/injection, schedule: Q01DX Z (ip), vehicle: saline) was 108 % of control and the T/C (dose: 150.0 mg/kg/injection, schedule: Q01DX Z (ip), vehicle: saline) was 116 % of control.
With `O=CCC(O)C(O)C(O)CO` (stereo not drawn) the T/C (dose: 375.0 mg/kg/injection, schedule: Q01DX Z (ip), vehicle: saline) was 113 % of control, the T/C [4] was 113 % of control and the T/C (dose: 750.0 mg/kg/injection, schedule: Q01DX Z (ip), vehicle: saline) was 116 % of control. For the same compound, the T/C (dose: 1000.0 mg/kg/injection, schedule: Q01DX Z (ip), vehicle: saline) was 123 % of control.
With `c1nc(SC2CCCC2)c2[nH]cnc2n1` the T/C (dose: 80.0 mg/kg/injection, schedule: Q01DX Z (ip), vehicle: carboxymethylcellulose (CMC)) was 96 % of control, the T/C (dose: 160.0 mg/kg/injection, schedule: Q01DX Z (ip), vehicle: carboxymethylcellulose (CMC)) was 110 % of control and the T/C (dose: 320.0 mg/kg/injection, schedule: Q01DX Z (ip), vehicle: carboxymethylcellulose (CMC)) was 89 % of control.
In the case of `Nc1nc(=S)c2ncn(C3OC(CO)C(O)C3O)c2[nH]1` (stereo not drawn), the T/C (dose: 3.75 mg/kg/injection, schedule: Q01DX Z (ip), vehicle: carboxymethylcellulose (CMC)) was 96 % of control, the T/C (dose: 5.0 mg/kg/injection, schedule: Q01DX Z (ip), vehicle: carboxymethylcellulose (CMC)) was 93 % of control and the T/C (dose: 7.5 mg/kg/injection, schedule: Q01DX Z (ip), vehicle: carboxymethylcellulose (CMC)) was 107 % of control. The T/C (dose: 10.0 mg/kg/injection, schedule: Q01DX Z (ip), vehicle: carboxymethylcellulose (CMC)) was 93 % of control.
In the case of `CN(N=O)C(=O)NCCSc1ncnc2nc[nH]c12`, the T/C (dose: 88.0 mg/kg/injection, schedule: Q01DX015 (ip), vehicle: other) was 104 % of control, the T/C (dose: 132.0 mg/kg/injection, schedule: Q01DX015 (ip), vehicle: other) was 108 % of control and the T/C (dose: 200.0 mg/kg/injection, schedule: Q01DX015 (ip), vehicle: other) was 108 % of control. The T/C (dose: 300.0 mg/kg/injection, schedule: Q01DX015 (ip), vehicle: other) was 102 % of control.
`[N-]=[N+]=CC(=O)NCC(=O)NN` was tested, and the T/C (dose: 62.0 mg/kg/injection, schedule: Q01DX Z (ip), vehicle: saline) was 114 % of control.
With `S=c1nc[nH]c2c1ncn2C1CCCC1` the T/C (dose: 10.0 mg/kg/injection, schedule: Q01DX015 (ip), vehicle: carboxymethylcellulose (CMC)) was 95 % of control, the T/C (dose: 10.0 mg/kg/injection, schedule: Q01DX015 (ip), vehicle: saline) was 100 % of control and the T/C (dose: 30.0 mg/kg/injection, schedule: Q01DX015 (ip), vehicle: carboxymethylcellulose (CMC)) was 98 % of control. For the same compound, the T/C (dose: 50.0 mg/kg/injection, schedule: Q01DX015 (ip), vehicle: carboxymethylcellulose (CMC)) was 97 % of control and the T/C (dose: 50.0 mg/kg/injection, schedule: Q01DX015 (ip), vehicle: saline) was 93 % of control.
In the case of `C=CC(CN1CC1)OC(C)=O` (stereo not drawn), the T/C (dose: 3.0 mg/kg/injection, schedule: Q01DX Z (ip), vehicle: saline) was 116 % of control, the T/C [7] was 150 % of control and the T/C [3] was 91 % of control.
In the case of `S=c1nc[nH]c2c1ncn2C1CCCCO1` (stereo not drawn), the T/C (dose: 16.0 mg/kg/injection, schedule: Q01DX Z (ip), vehicle: carboxymethylcellulose (CMC)) was 104 % of control, the T/C (dose: 31.0 mg/kg/injection, schedule: Q01DX Z (ip), vehicle: carboxymethylcellulose (CMC)) was 104 % of control and the T/C (dose: 62.0 mg/kg/injection, schedule: Q01DX Z (ip), vehicle: carboxymethylcellulose (CMC)) was 107 % of control. The T/C (dose: 125.0 mg/kg/injection, schedule: Q01DX Z (ip), vehicle: carboxymethylcellulose (CMC)) was 96 % of control.
In the case of `CN(C)[C@@H]1C(=O)C(C(=O)NCNc2nc3n[nH]nc3c(=O)[nH]2)=C(O)[C@@]2(O)C(=O)C3=C(O)c4c(O)cccc4[C@@](C)(O)[C@H]3C[C@@H]12`, the T/C (dose: 50.0 mg/kg/injection, schedule: Q01DX009 (ip), vehicle: saline) was 100 % of control, the T/C (dose: 100.0 mg/kg/injection, schedule: Q01DX009 (ip), vehicle: saline) was 104 % of control and the T/C (dose: 200.0 mg/kg/injection, schedule: Q01DX009 (ip), vehicle: saline) was 100 % of control. For the same compound, the T/C (dose: 400.0 mg/kg/injection, schedule: Q01DX009 (ip), vehicle: saline) was 100 % of control.
For `N#CCSc1ncnc2nc[nH]c12`, the T/C (dose: 12.5 mg/kg/injection, schedule: Q01DX Z (ip), vehicle: carboxymethylcellulose (CMC)) was 86 % of control, the T/C [5] was 88 % of control and the T/C [6] was 87 % of control. For the same compound, the T/C (dose: 75.0 mg/kg/injection, schedule: Q01DX Z (ip), vehicle: carboxymethylcellulose (CMC)) was 90 % of control and the T/C (dose: 100.0 mg/kg/injection, schedule: Q01DX Z (ip), vehicle: carboxymethylcellulose (CMC)) was 100 % of control.
With `O=C(Nc1ccc(C2=NCCN2)cc1)c1ccc(C(=O)Nc2ccc(C3=NCCN3)cc2)c([N+](=O)[O-])c1` the T/C (dose: 0.5 mg/kg/injection, schedule: Q01DX Z (ip), vehicle: methylcellulose (MC)) was 98 % of control, the T/C (dose: 1.0 mg/kg/injection, schedule: Q01DX Z (ip), vehicle: methylcellulose (MC)) was 93 % of control and the T/C (dose: 2.0 mg/kg/injection, schedule: Q01DX Z (ip), vehicle: carboxymethylcellulose (CMC)) was 181 % of control. For the same compound, the T/C (dose: 2.0 mg/kg/injection, schedule: Q01DX Z (ip), vehicle: methylcellulose (MC)) was 112 % of control, the T/C [8] was 233 % of control and the T/C [9] was 186 % of control. For the same compound, the T/C (dose: 6.0 mg/kg/injection, schedule: Q01DX Z (ip), vehicle: methylcellulose (MC)) was 224 % of control, the T/C [10] was 124 % of control and 232 % of control and the T/C (dose: 12.0 mg/kg/injection, schedule: Q01DX Z (ip), vehicle: carboxymethylcellulose (CMC)) was 173 % of control. For the same compound, the T/C (dose: 27.0 mg/kg/injection, schedule: Q01DX Z (ip), vehicle: carboxymethylcellulose (CMC)) was 107 % of control, the T/C (dose: 27.0 mg/kg/injection, schedule: Q02DX010 (ip), vehicle: saline) was 224 % of control and the T/C (dose: 60.0 mg/kg/injection, schedule: Q02DX010 (ip), vehicle: saline) was 111 % of control.
For `Nc1ncnc2c1ncn2C(C=O)OC(C=O)CO` (stereo not drawn), the T/C [8] was 97 % of control, the T/C [9] was 102 % of control and the T/C [10] was 106 % of control. For the same compound, the T/C (dose: 12.0 mg/kg/injection, schedule: Q01DX015 (ip), vehicle: saline) was 170 % of control, the T/C [7] was 124 % of control and the T/C (dose: 13.0 mg/kg/injection, schedule: Q01DX015 (ip), vehicle: saline) was 171 % of control. The T/C (dose: 24.0 mg/kg/injection, schedule: Q01DX015 (ip), vehicle: saline) was 189 % of control, the T/C (dose: 48.0 mg/kg/injection, schedule: Q01DX015 (ip), vehicle: saline) was 111 % of control and the T/C (dose: 50.0 mg/kg/injection, schedule: Q01DX Z (ip), vehicle: saline) was 88 % of control.

From PubChem BioAssay AID308 (DTP/NCI, 2004)
